Literature values in patent US8946160B2, “Nitric oxide amino acid esters for improving vascular circulation, and prophylaxis or treatment of a condition associated with impaired blood circulation” (Oral Delivery Technology Ltd., priority 2010, dated 2015).

Compound: O=[N+]([O-])OCC(CO[N+](=O)[O-])O[N+](=O)[O-] [nitroglycerin]
- maximum shelf life of a product containing nitroglycerin: about six
